This is an account of results in PMC3199744, “Preformulation and stability in biological fluids of the retrocyclin RC-101, a potential anti-HIV topical microbicide” (AIDS Research and Therapy, 2011).

A short description of data set [1]: Oxidation of RC-101 by hydrogen peroxide, HPLC. The note with it: EDTA 1.0 μg/mL, H2O2 0.002%, RC-101 500 μg/mL, HPLC over time.
Experimental: For all pre-formulation studies described below, triplicate solutions of RC-101 (500 μg/mL) were prepared in either water or aqueous buffer solution. Thermal degradation studies were conducted at 25, 37, and 65°C for a minimum period of 1 week. The effect of pH on the stability of RC-101 was evaluated over the pH range from 3 to 12 using 10 mM phosphate buffer solutions, at low (50 mmol/kg) and high (500 mmol/kg) ionic strength. Oxidation of RC-101 was evaluated by exposing a solution of RC-101 to hydrogen peroxide (H2O2) at concentrations of 3.0, 0.08, and 0.002% (v/v). The high H2O2 concentration (3.0%) was selected as a forced degradation concentration. […] Protection against oxidation was investigated by the addition of antioxidants commonly used in pharmaceutical products. The antioxidants used in this study were: methionine (95.2 μg/mL or 250 μg/mL), cysteine (95.2 μg/mL), glutathione (90.9 μg/mL), vitamin E TPGS (90.9 μg/mL), ascorbic acid (1.0 mg/mL), sodium ascorbate (1.0 mg/mL), and EDTA (1.0 μg/mL).
RC-101 concentration after exposure to preformulation conditions was analyzed by HPLC as previously described [11]. Briefly, the HPLC system (Waters Corporation, Milford, MA) was equipped with an autoinjector model 717, a quaternary pump model 600, and an ultraviolet (UV) detector model 2487 set up at 215 nm. Separation of RC-101 from degradant products was achieved using a Phenomenex Jupiter 5 μC5 300 Å (4.6 × 250 mm) column (Phenomenex, Torrance, CA) protected by a Widepore C5 (4 × 3.0 mm) guard cartridge (Phenomenex). The gradient consisted of mobile phase A (0.1% TFA in water (v/v)), and mobile phase B (0.07% TFA in acetonitrile (v/v)) pumped at a flow rate of 1.0 mL/min. […]
HPLC data obtained from the preformulation studies were expressed as the average percentage of the peak area from time 0 ± standard deviation, n = 3. Results were analyzed by one-way analysis of variance (ANOVA) with multiple comparisons of individual time points by using post hoc Bonferroni correction to detect significant differences under different conditions. […]
In data set [2] the test system is normal vaginal microflora. The following applies: preliminary studies, data not shown.
In data set [3] the test system is human ectocervical tissue. The note with it: preliminary studies, data not shown.

SMILES strings stand for the structures.

Turning to `O=C(O)CN(CCN(CC(=O)O)CC(=O)O)CC(=O)O` [EDTA, Ethylenediamine tetraacetic acid], the “protection of RC-101 against oxidation after exposure to H2O2” value in data set [1] is given as “protection”. The toxic concentration in data set [2] and in data set [3] was at least 1% in each case.
